# Laboratory results published in patent US20030176327A1 (priority 2001, published 2003).
# Counter-ions that a name gives are not always drawn.
# Legend:
# [1] = tested on: Burkholderia mallei; type: cell-based
# [2] = tested on: Clostridium perfringens; type: cell-based
# [3] = tested on: Brucella abortis, B milletensis and B suis; type: cell-based
# [4] = tested on: Bacillus anthracis; type: cell-based
# [5] = tested on: Clostridium botulinin; type: cell-based
# [6] = tested on: Yersinia Pestis; type: cell-based
# [7] = tested on: Francisella tularensis; type: cell-based
# [8] = tested on: B anthracis; settings: cited from earlier work
# [9] = tested on: anthrax infection; settings: in vivo; cited from earlier work
Molecule,Suitability against Burkholderia mallei [1],Suitability against Clostridium perfringens [2],"Suitability against Brucella abortis, B milletensis and B suis [3]",Suitability against Bacillus anthracis [4],Suitability against Clostridium botulinin [5],Suitability against Yersinia Pestis [6],Suitability against Francisella tularensis [7],Effective against B anthracis in vitro [8],"Efficacy in treatment of anthrax infection, animal models [9]",Sensitivity of naturally occurring anthrax strains [8]
"N[C@@H](C(=O)N[C@@H]1C(=O)N2C(C(=O)O)=C(Cl)CS[C@H]12)c1ccccc1 [Cefaclor, 3-chloro-7-D-(2-phenylglycinamido)-3-cephem-4-carboxylic acid monohydrate]",No,No,No,Yes,No,Yes,Yes,–,–,–
Cn1nnnc1SCC1=C(C(=O)O)N2C(=O)[C@@H](NC(=O)[C@H](O)c3ccccc3)[C@H]2SC1 [Cefamandole],No,No,No,Yes,No,Yes,Yes,–,–,–
Cc1nnc(SCC2=C(C(=O)O)N3C(=O)[C@@H](NC(=O)Cn4cnnn4)[C@H]3SC2)s1 [Cefazolin],No,–,No,Yes,–,Yes,Yes,effective,–,–
CO/N=C(\C(=O)N[C@@H]1C(=O)N2C(C(=O)O)=C(COC(N)=O)CS[C@H]12)c1ccco1 [Cefuroxime],No,No,No,Yes,No,Yes,Yes,–,–,–
CC1=C(C(=O)O)N2C(=O)[C@@H](NC(=O)[C@H](N)c3ccccc3)[C@H]2SC1 [Cephalexin Monohydrate],No,No,No,Yes,No,Yes,Yes,–,–,–
CC(=O)OCC1=C(C(=O)O)N2C(=O)[C@@H](NC(=O)Cc3cccs3)[C@H]2SC1 [Cephalothin],No,No,No,Yes,No,Yes,Yes,–,–,–
CCn1nc(C(=O)O)c(=O)c2cc3c(cc21)OCO3 [Cinoxacin],No,No,No,Yes,No,Yes,Yes,–,–,–
"CCCCCCCCCC(=O)N[C@@H](Cc1c[nH]c2ccccc12)C(=O)N[C@H](CC(N)=O)C(=O)N[C@@H](CC(=O)O)C(=O)N[C@@H]1C(=O)NCC(=O)N[C@@H](CCCN)C(=O)N[C@@H](CC(=O)O)C(=O)N[C@H](C)C(=O)N[C@@H](CC(=O)O)C(=O)NCC(=O)N[C@H](CO)C(=O)N[C@@H]([C@H](C)CC(=O)O)C(=O)N[C@@H](CC(=O)c2ccccc2N)C(=O)O[C@@H]1C [Daptomycin, N-(1-oxodecyl)-L-tryptophyl-L-asparaginyl-L-A-aspartyl-L-threonylglycyl-L-ornithyl-L-A-aspartyl-D-alanyl-L-A-aspartylglycyl-D-seryl-threo-3-methyl-L-A-glutamyl-G-(2-aminophenyl)-G-oxo-L-A-aminobutanoicacid, E1-lactone]",No,Yes**,No,Yes,Yes*,No,No,–,–,–
"N[C@@H](C(=O)N[C@@H]1C(=O)N2C(C(=O)O)=C(Cl)CC[C@H]12)c1ccccc1.O [Loracarbef, (6R,7S)-7-[(R)-2-amino-2-phenylacetamido]-3-chloro-8-oxo-1-azabicyclo[4.2.0]oct-2-ene-2-carboxylic acid, monohydrate]",No,No,No,Yes,No,Yes,Yes,–,–,–
"CN[C@H](CC(C)C)C(=O)N[C@H]1C(=O)N[C@@H](CC(N)=O)C(=O)N[C@H]2C(=O)N[C@H]3C(=O)N[C@H](C(=O)N[C@H](C(=O)O)c4cc(O)cc(O)c4-c4cc3ccc4O)[C@H](O[C@H]3C[C@](C)(N)[C@@H](O)[C@H](C)O3)c3ccc(c(Cl)c3)Oc3cc2cc(c3O[C@@H]2O[C@H](CO)[C@@H](O)[C@H](O)[C@H]2O[C@H]2C[C@](C)(NCc3ccc(-c4ccc(Cl)cc4)cc3)[C@@H](O)[C@H](C)O2)Oc2ccc(cc2Cl)[C@H]1O [Oritavancin, (4″R)-22-O-(3-amino-2,3,6-trideoxy-3-C-methyl-A-L-arabino-hexopyranosyl)-N3″-((4-chloro(1,1′-biphenyl)-4′-yl)methyl)vancomycin]",No,Yes**,No,Yes,Yes*,No,No,–,–,–
NC[C@H]1O[C@H](O[C@H]2[C@H](O)[C@@H](O[C@H]3O[C@H](CO)[C@@H](O)[C@H](N)[C@H]3O)[C@H](N)C[C@@H]2N)[C@H](N)C[C@@H]1O [Tobramycin],Yes,No,Yes,Yes,No,Yes,Yes,–,–,–
CN[C@H](CC(C)C)C(=O)N[C@H]1C(=O)N[C@@H](CC(N)=O)C(=O)N[C@H]2C(=O)N[C@H]3C(=O)N[C@H](C(=O)N[C@H](C(=O)O)c4cc(O)cc(O)c4-c4cc3ccc4O)[C@H](O)c3ccc(c(Cl)c3)Oc3cc2cc(c3O[C@@H]2O[C@H](CO)[C@@H](O)[C@H](O)[C@H]2O[C@H]2C[C@](C)(N)[C@H](O)[C@H](C)O2)Oc2ccc(cc2Cl)[C@H]1O [Vancomycin HCl],No,Yes**,No,Yes,Yes*,No,No,effective,–,–
O=C(N[C@H](CO)[C@H](O)c1ccc([N+](=O)[O-])cc1)C(Cl)Cl [chloramphenicol],–,–,–,–,–,–,–,effective,–,–
O=C(O)c1cn(C2CC2)c2cc(N3CCNCC3)c(F)cc2c1=O [ciprofloxacin],–,–,–,–,–,–,–,–,excellent efficacy,–
CC[C@H]1OC(=O)[C@H](C)[C@@H](O[C@H]2C[C@@](C)(OC)[C@@H](O)[C@H](C)O2)[C@H](C)[C@@H](O[C@@H]2O[C@H](C)C[C@H](N(C)C)[C@H]2O)[C@](C)(O)C[C@@H](C)C(=O)[C@H](C)[C@@H](O)[C@]1(C)O [erythromycin],–,–,–,–,–,–,–,effective,–,–
penicillin,–,–,–,–,–,–,–,–,–,sensitive
